Test results taken from patent US20220009914A1, “Analogs of Nitrofuran Antibiotics to Combat Resistance” (The Trustees of Indiana University, priority 2020, published 2022).
pIC50: −log10 of the molar value. Read-outs that look alike come from different tables or passages of the source.

Legend:
E. coli GroEL/ES = biological target: T1, E. coli GroEL/ES (Escherichia coli, UniProt P0A6F5); test: GroEL/ES-mediated dMDH refolding assay in the presence of E. coli NfsB nitroreductase; type: biochemical; settings: for GroEL/ES inhibition in words: in the presence of E. coli NfsB
T1 construct: made in house; host or cells: GroEL in NEB 5-alpha E. coli; GroES in E. coli BL21 (DE3)
T1 sequence (P0A6F5 2-548): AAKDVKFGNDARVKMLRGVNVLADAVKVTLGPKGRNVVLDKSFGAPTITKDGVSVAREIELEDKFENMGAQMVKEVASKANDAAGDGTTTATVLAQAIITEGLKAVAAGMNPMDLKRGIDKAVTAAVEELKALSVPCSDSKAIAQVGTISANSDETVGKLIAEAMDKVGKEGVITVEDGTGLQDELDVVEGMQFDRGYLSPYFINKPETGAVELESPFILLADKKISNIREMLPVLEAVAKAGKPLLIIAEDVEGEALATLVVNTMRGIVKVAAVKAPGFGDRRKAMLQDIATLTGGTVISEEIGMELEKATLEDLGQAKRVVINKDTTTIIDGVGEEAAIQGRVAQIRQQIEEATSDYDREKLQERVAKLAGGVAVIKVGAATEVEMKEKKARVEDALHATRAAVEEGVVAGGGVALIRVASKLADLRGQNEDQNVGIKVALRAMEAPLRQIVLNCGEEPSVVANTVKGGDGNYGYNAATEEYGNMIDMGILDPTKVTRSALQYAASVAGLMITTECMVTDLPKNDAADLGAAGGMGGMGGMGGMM
Protocol: Evaluating compounds for inhibition in the GroEL/ES-mediated dMDH refolding assay and native MDH activity counter-screen in the presence of E. coli NfsB nitroreductase. These assays were performed nearly identically to those mentioned above, but with a couple distinct modifications. For both assays, 10 μg/mL of the E. coli NfsB nitroreductase enzyme (Sigma product #N9284) was added to the initial GroEL/ES-dMDH solution. For the GroEL/ES-dMDH refolding assay, after stamping with compounds, 10 μL of a 2.4 mM NADH solution was added, followed by a 10 minute incubation period at 37° C. to bioactivate the nitrofuran analogs. The remainder of the assay was conducted as in our standard protocol where no NfsB nitroreductase was present. […] For the native MDH activity counter-screen in the presence of E. coli NfsB nitroreductase, the assay was performed as described above for the GroEL/ES-dMDH refolding assay with NfsB; however, compound addition to the assay plates was conducted after the EDTA quench step, followed by a 10 minute incubation period at 37° C. to bioactivate the nitrofuran analogs. […] Results presented represent the averages of IC50 values obtained from at least four replicates in each assay.
Evaluating analogs for inhibiting GroEL/ES-mediated substrate refolding functions in the presence of the E. coli NfsB type-1 nitroreductase. […] However, our standard GroEL/ES-mediated refolding assays and native substrate reporter counter-screens were conducted without nitroreductases present.

E. coli GroEL = biological target: T2, E. coli GroEL (Escherichia coli, UniProt P0A6F5); test: GroEL-mediated ATPase assay; type: biochemical
T2 construct: made in house; host or cells: NEB 5-alpha E. coli
T2 sequence (P0A6F5 2-548): as above
Protocol: Evaluating compounds for inhibition in the GroEL-mediated ATPase assay. All compounds were evaluated for inhibiting E. coli GroEL-mediated ATPase activity as per our previously reported procedure although employing only GroEL in solution and not containing GroES or denatured MDH. Evaluating compounds for inhibition in the GroEL-mediated ATPase assay.
Reagent preparation: For this assay, four primary reagent solutions were prepared: 1) GroEL protein solution; 2) ATP initiation solution; 3) EDTA quench solution; 4) malachite green reporter solution. The GroEL protein solution consisted of 100 nM of GroEL in folding buffer (50 mM Tris-HCl, pH 7.4, 50 mM KCl, 10 mM MgCl2, and 1 mM DTT), which was prepared immediately prior to dispensing into the assay plates. For the ATP initiation solution, ATP solid was diluted into folding buffer to a final concentration of 2 mM. Quench solution contained 300 mM EDTA (pH 8.0). The malachite green reporter solution contained 0.034% w/v malachite green, 1.04% w/v ammonium molybdate, 1% Tween-20, and 1 M HCl dissolved in H2O.
Assay Protocol: First, 10 μL aliquots of the GroEL protein solution were dispensed into clear, flat-bottom 384-well polystyrene plates. […] After incubating for 45 minutes at 37° C., 10 μL of the EDTA quench solution was added to quench the reaction cycle. Then, 60 μL of the malachite green reporter solution was added and the plates were incubated at room temperature for 10 min. The absorbance of the malachite green-phosphate complex was measured at 600 nm using a Molecular Devices SpectraMax Plus384 microplate reader. A second set of baseline control plates were prepared analogously, but without GroEL protein solution, to correct for possible interference from compound absorbance or turbidity. […] Results presented represent the averages of IC50 values obtained from at least four replicates.
Evaluating analogs for inhibiting GroEL-mediated ATPase activity. […] Thus, we further tested analogs in a well-established GroEL ATPase assay that employed malachite green to monitor inorganic phosphate liberated as GroEL hydrolyzed ATP. Briefly, a solution of GroEL was incubated with test compounds (8-point, 3-fold dilution series) and the assay was initiated by addition of ATP. After incubating for 45 minutes, the ATPase reaction was quenched by the addition of EDTA. Malachite green was then added to the assay to bind and detect free phosphates in solution (absorbance detection at k=600 nm). If analogs inhibited ATPase activity, then there would be no free phosphates for malachite green to bind, leading to minimal absorbance at 600 nm.

[1] = with E. coli NfsB nitroreductase, read-out: NfsB-GroEL/ES-dMDH Refolding IC50

Row | SMILES | pIC50 (E. coli GroEL/ES) | pIC50 (E. coli GroEL) | GroEL/ES inhibition in words (E. coli GroEL/ES) | pIC50 (E. coli GroEL/ES; [1]) | pIC50 (E. coli GroEL; GroEL only, no GroES or dMDH, read-out: GroEL ATPase IC50)
1 | O=C(N/N=C/c1ccc([N+](=O)[O-])o1)c1ccc(NS(=O)(=O)c2ccc(Br)cc2)cc1 [Compound 27, 4-bromo-N-(4-(2-((5-nitrofuran-2-yl)methylene)hydrazine-1-carbonyl)phenyl)benzenesulfonamide] | 5.70 | < 3.60 | – | – | –
2 | O=C1CN(/N=C/c2ccc([N+](=O)[O-])o2)C(=O)N1 [Nitrofurantoin, reference compound] | – | < 3.60 | weak to moderate GroEL/ES inhibitors | 4.08 | –
3 | O=C(N/N=C/c1ccc(O)cc1)c1ccccc1 [Compound 36, N′-(4-hydroxybenzylidene)benzohydrazide] | < 4.08 | < 3.60 | – | – | –
4 | O=C(N/N=C/c1ccc(O)c2ncccc12)c1ccccc1 [Compound 5, N′-((8-hydroxyquinolin-5-yl)methylene)benzohydrazide] | < 4.08 | < 3.60 | – | – | –
5 | O=C(N/N=C/c1ccc([N+](=O)[O-])o1)c1ccc(O)cc1 [Nifuroxazide, reference compound] | – | < 3.60 | weak to moderate GroEL/ES inhibitors | 4.72 | –
6 | O=C(N/N=C/c1ccc([N+](=O)[O-])o1)c1ccc(Cl)s1 [Compound 17, 5-chloro-N′-((5-nitrofuran-2-yl)methylene)thiophene-2-carbohydrazide] | – | – | most potent at inhibiting GroEL/ES in the presence of NfsB | 5.49 | < 3.60
7 | O=C(N/N=C/c1ccc(O)c2ncccc12)c1ccc(NS(=O)(=O)c2ccc(Br)cc2)cc1 [Compound 14, 4-bromo-N-(4-(2-((8-hydroxyquinolin-5-yl)methylene)hydrazine-1-carbonyl)phenyl)benzenesulfonamide] | 5.44 | < 3.60 | – | – | –
8 | O=C(N/N=C/c1ccc(O)c2ncccc12)c1cccs1 [Compound 3, N′-((8-hydroxyquinolin-5-yl)methylene)thiophene-2-carbohydrazide] | 4.54 | < 3.60 | – | – | –
9 | CN(C)c1ccc(C(=O)N/N=C/c2ccc([N+](=O)[O-])o2)cc1 [Compound 21, 4-(dimethylamino)-N′-((5-nitrofuran-2-yl)methylene)benzohydrazide] | – | < 3.60 | – | 4.92 | –
10 | COc1ccc(C(=O)N/N=C/c2ccc(O)c3ccccc23)cc1 [Compound 29, N′-((4-hydroxynaphthalen-1-yl)methylene)-4-methoxybenzohydrazide] | < 4.08 | < 3.60 | – | – | –
11 | O=C(N/N=C/c1ccc([N+](=O)[O-])o1)c1cccc(Oc2ccccc2)c1 [Compound 24, N′-((5-nitrofuran-2-yl)methylene)-3-phenoxybenzohydrazide] | 5.55 | < 3.60 | – | – | –
